Results from ChEMBL document CHEMBL1201861, “Genomics of Drug Sensitity in Cancer screening data, Wellcome Trust Sanger Institute”.

Columns and labels:
RCM-1 = test: cells; type: functional, cell-based, Homo sapiens; details: Homo sapiens, RCM-1;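 also: growth inhibition of the RCM-1 line, determined with a cell viability readout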
Description: SANGER: Inhibition of human RCM-1 cell growth in a cell viability assay.

NCI-H810 = test: cells; type: functional, cell-based, Homo sapiens; details: Homo sapiens, NCI-H810;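 also: IC50 reflects inhibition of cancer cell line growth, read out with a cell viability assay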
Description: SANGER: Inhibition of human NCI-H810 cell growth in a cell viability assay.

Ca-Ski = test: cells; type: functional, cell-based, Homo sapiens; details: Homo sapiens, Ca-Ski;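 also: cell viability assay measuring inhibition of Ca-Ski cell growth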
Description: SANGER: Inhibition of human Ca-Ski cell growth in a cell viability assay.

CAL-62 = test: cells; type: functional, cell-based, Homo sapiens; details: Homo sapiens, CAL-62;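 also: growth inhibition of CAL-62 cells, read out with a cell viability assay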
Description: SANGER: Inhibition of human CAL-62 cell growth in a cell viability assay.

NCI-H2009 = test: cells; type: functional, cell-based, Homo sapiens; details: Homo sapiens, NCI-H2009;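 also: cell viability assay measuring inhibition of NCI-H2009 cell growth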
Description: SANGER: Inhibition of human NCI-H2009 cell growth in a cell viability assay.

SW1710 = test: cells; type: functional, cell-based, Homo sapiens; details: Homo sapiens, SW1710;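 also: growth inhibition of SW1710 cells, determined with a cell viability assay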
Description: SANGER: Inhibition of human SW1710 cell growth in a cell viability assay.

A-375 = test: cells; type: functional, cell-based, Homo sapiens; details: Homo sapiens, A-375;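 also: growth inhibition of A375 cells, read out with a cell viability assay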
Description: SANGER: Inhibition of human A375 cell growth in a cell viability assay.

NY = test: cells; type: functional, cell-based, Homo sapiens; details: Homo sapiens, NY
Description: SANGER: Inhibition of human NY cell growth in a cell viability assay.

SW1417 = test: cells; type: functional, cell-based, Homo sapiens; details: Homo sapiens, SW1417;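 also: growth inhibition of human SW1417 cells, read out with a cell viability assay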
Description: SANGER: Inhibition of human SW1417 cell growth in a cell viability assay.

CaR-1 = test: cells; type: functional, cell-based, Homo sapiens; details: Homo sapiens, CaR-1;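 also: growth inhibition of human CaR-1 cancer cells, read out with a cell viability assay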
Description: SANGER: Inhibition of human CaR-1 cell growth in a cell viability assay.

LU-99A = test: cells; type: functional, cell-based, Homo sapiens; details: Homo sapiens, LU-99A;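 also: growth inhibition of LU-99A cells, read out with a cell viability assay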
Description: SANGER: Inhibition of human LU-99A cell growth in a cell viability assay.

HTC-C3 = test: cells; type: functional, cell-based, Homo sapiens; details: Homo sapiens, HTC-C3;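 also: inhibition of cell growth, read out with a cell viability assay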
Description: SANGER: Inhibition of human HTC-C3 cell growth in a cell viability assay.

SK-MEL-24 = test: cells; type: functional, cell-based, Homo sapiens; details: Homo sapiens, SK-MEL-24;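 also: growth inhibition read out by a cell viability assay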
Description: SANGER: Inhibition of human SK-MEL-24 cell growth in a cell viability assay.

SW1088 = test: cells; type: functional, cell-based, Homo sapiens; details: Homo sapiens, SW1088;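 also: growth inhibition of human SW1088 cells, read out by a cell viability assay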
Description: SANGER: Inhibition of human SW1088 cell growth in a cell viability assay.

MDA-MB-175-VII = test: cells; type: functional, cell-based, Homo sapiens; details: Homo sapiens, MDA-MB-175-VII
HT1197 = test: cells; type: functional, cell-based, Homo sapiens, HT-1197; details: Homo sapiens, HT1197
Description: SANGER: Inhibition of human HT-1197 cell growth in a cell viability assay.

FTC-133 = test: cells; type: functional, cell-based, Homo sapiens; details: Homo sapiens, FTC-133
MDA-MB-453 = test: cells; type: functional, cell-based, Homo sapiens; details: Homo sapiens, MDA-MB-453
Description: SANGER: Inhibition of human MDA-MB-453 cell growth in a cell viability assay.

BHT-101 = test: cells; type: functional, cell-based, Homo sapiens; details: Homo sapiens, BHT-101
Description: SANGER: Inhibition of human BHT-101 cell growth in a cell viability assay.

H4 = test: cells; type: functional, cell-based, Homo sapiens; details: Homo sapiens, H4
Description: SANGER: Inhibition of human H4 cell growth in a cell viability assay.

C3A = test: cells; type: functional, cell-based, Homo sapiens; details: Homo sapiens, C3A;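 also: growth inhibition of C3A human cells, quantified with a cell viability readout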
Description: SANGER: Inhibition of human C3A cell growth in a cell viability assay.

WM-115 = test: cells; type: functional, cell-based, Homo sapiens; details: Homo sapiens, WM-115
Description: SANGER: Inhibition of human WM-115 cell growth in a cell viability assay.

SW48 = test: cells; type: functional, cell-based, Homo sapiens; details: Homo sapiens, SW48;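 also: growth inhibition of SW48 cells, read out with a cell viability assay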
Description: SANGER: Inhibition of human SW48 cell growth in a cell viability assay.

HT55 = test: cells; type: functional, cell-based, Homo sapiens; details: Homo sapiens, HT55;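 also: cell viability readout measuring growth inhibition of human HT55 cells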
Description: SANGER: Inhibition of human HT55 cell growth in a cell viability assay.

DU-145 = test: cells; type: functional, cell-based, Homo sapiens; details: Homo sapiens, DU-145
Description: SANGER: Inhibition of human DU-145 cell growth in a cell viability assay.

HO-1-N-1 = test: cells; type: functional, cell-based, Homo sapiens; details: Homo sapiens, HO-1-N-1;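 also: growth inhibition of human HO-1-N-1 cells, read out with a cell viability assay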
Description: SANGER: Inhibition of human HO-1-N-1 cell growth in a cell viability assay.

KYSE-180 = test: cells; type: functional, cell-based, Homo sapiens; details: Homo sapiens, KYSE-180;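 also: growth inhibition of KYSE-180 cells, read out with a cell viability assay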
Description: SANGER: Inhibition of human KYSE-180 cell growth in a cell viability assay.

Capan-2 = test: cells; type: functional, cell-based, Homo sapiens; details: Homo sapiens, Capan-2;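 also: Capan-2 cell growth inhibition, read out with a viability assay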
Description: SANGER: Inhibition of human Capan-2 cell growth in a cell viability assay.

CAMA-1 = test: cells; type: functional, cell-based, Homo sapiens; details: Homo sapiens, CAMA-1;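 also: growth inhibition of CAMA-1 cells, read out with a cell viability assay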
Description: SANGER: Inhibition of human CAMA-1 cell growth in a cell viability assay.

HT-1080 = test: cells; type: functional, cell-based, Homo sapiens; details: Homo sapiens, HT-1080
Description: SANGER: Inhibition of human HT-1080 cell growth in a cell viability assay.

VMRC-RCZ = test: cells; type: functional, cell-based, Homo sapiens; details: Homo sapiens, VMRC-RCZ
Description: SANGER: Inhibition of human VMRC-RCZ cell growth in a cell viability assay.

DoTc2-4510 = test: cells; type: functional, cell-based, Homo sapiens; details: Homo sapiens, DoTc2-4510
SNU-387 = test: cells; type: functional, cell-based, Homo sapiens; details: Homo sapiens, SNU-387
Description: SANGER: Inhibition of human SNU-387 cell growth in a cell viability assay.

G-401 = test: cells; type: functional, cell-based, Homo sapiens; details: Homo sapiens, G-401
Description: SANGER: Inhibition of human G-401 cell growth in a cell viability assay.

SUP-T1 = test: cells; type: functional, cell-based, Homo sapiens; details: Homo sapiens, SUP-T1;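 also: growth inhibition of human SUP-T1 cells, read out as cell viability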
Description: SANGER: Inhibition of human SUP-T1 cell growth in a cell viability assay.

CHP-126 = test: cells; type: functional, cell-based, Homo sapiens; details: Homo sapiens, CHP-126
Description: SANGER: Inhibition of human CHP-126 cell growth in a cell viability assay.

DMS-153 = test: cells; type: functional, cell-based, Homo sapiens; details: Homo sapiens, DMS-153
Description: SANGER: Inhibition of human DMS-153 cell growth in a cell viability assay.

BL-70 = test: SANGER: Inhibition of human BL-70 cell growth in a cell viability assay.; type: functional, cell-based; details: Homo sapiens, BL-70
THP-1 = test: cells; type: functional, cell-based, Homo sapiens; details: Homo sapiens, THP-1;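 also: growth inhibition of THP-1 cells, read out via a cell viability assay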
Description: SANGER: Inhibition of human THP-1 cell growth in a cell viability assay.

MRK-nu-1 = test: cells; type: functional, cell-based, Homo sapiens; details: Homo sapiens, MRK-nu-1;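 also: cell viability assay measuring growth suppression of human MRK-nu-1 cells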
Description: SANGER: Inhibition of human MRK-nu-1 cell growth in a cell viability assay.

SCLC-21H = test: cells; type: functional, cell-based, Homo sapiens; details: Homo sapiens, SCLC-21H;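 also: growth inhibition of cultured human SCLC-21H cells, read out with a cell viability assay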
Description: SANGER: Inhibition of human SCLC-21H cell growth in a cell viability assay.

LP-1 = test: cells; type: functional, cell-based, Homo sapiens; details: Homo sapiens, LP-1;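 also: growth inhibition of human LP-1 cells, with the read-out taken from a cell viability assay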
Description: SANGER: Inhibition of human LP-1 cell growth in a cell viability assay.

SNU-16 = test: cells; type: functional, cell-based, Homo sapiens; details: Homo sapiens, SNU-16;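 also: growth inhibition of human SNU-16 cells, determined with a cell viability readout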
Description: SANGER: Inhibition of human NCI-SNU-16 cell growth in a cell viability assay.

NCI-H524 = test: cells; type: functional, cell-based, Homo sapiens; details: Homo sapiens, NCI-H524;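 also: growth inhibition of human NCI-H524 cells, read out through a cell viability assay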
Description: SANGER: Inhibition of human NCI-H524 cell growth in a cell viability assay.

NCI-H748 = test: cells; type: functional, cell-based, Homo sapiens; details: Homo sapiens, NCI-H748;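 also: growth inhibition of NCI-H748 cells, measured by a cell viability assay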
Description: SANGER: Inhibition of human NCI-H748 cell growth in a cell viability assay.

LC-1F = test: cells; type: functional, cell-based, Homo sapiens; details: Homo sapiens, LC-1F;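 also: growth inhibition of human LC-1F cells, read out with a cell viability assay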
Description: SANGER: Inhibition of human LC-1F cell growth in a cell viability assay.

L-540 = test: cells; type: functional, cell-based, Homo sapiens; details: Homo sapiens, L-540;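 also: growth inhibition of the human L-540 cell line, read out with a viability assay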
Description: SANGER: Inhibition of human L-540 cell growth in a cell viability assay.

MC-CAR = test: cells; type: functional, cell-based, Homo sapiens; details: Homo sapiens, MC-CAR;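 also: growth inhibition of the human MC-CAR cell line, read out by a cell viability assay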
Description: SANGER: Inhibition of human MC-CAR cell growth in a cell viability assay.

LU-165 = test: cells; type: functional, cell-based, Homo sapiens; details: Homo sapiens, LU-165
Description: SANGER: Inhibition of human LU-165 cell growth in a cell viability assay.

Measured: IC50

Nc1cccc2c1CN(C1CCC(=O)NC1=O)C2=O (centres undefined) [LENALIDOMIDE]
not listed: SUP-T1 | CHP-126 | DMS-153 | BL-70 | THP-1 | MRK-nu-1 | SCLC-21H | LP-1 | SNU-16 | NCI-H524 | NCI-H748 | LC-1F | L-540 | MC-CAR | LU-165
> 5 µM: all other assays above

CC(=O)O[C@H]1C(=O)[C@@]2(C)[C@H]([C@H](OC(=O)c3ccccc3)[C@]3(O)C[C@H](OC(=O)[C@H](O)[C@@H](NC(=O)c4ccccc4)c4ccccc4)C(C)=C1C3(C)C)[C@]1(OC(C)=O)CO[C@@H]1C[C@@H]2O [PACLITAXEL]
0.0588 µM: SCLC-21H
0.0101 µM: SNU-16
0.0464 µM: L-540
0.0093 µM: BL-70
0.00299 µM: MRK-nu-1
0.0353 µM: NCI-H524
0.0233 µM: MC-CAR
> 0.102 µM: SUP-T1 | CHP-126 | DMS-153 | THP-1 | LP-1 | NCI-H748 | LC-1F | LU-165

N[C@@H](CSC(c1ccccc1)(c1ccccc1)c1ccccc1)C(=O)O [S-TRITYL-L-CYSTEINE]
0.76 µM: MRK-nu-1
1.21 µM: MC-CAR
1.03 µM: NCI-H524
0.547 µM: BL-70
> 5.12 µM: SUP-T1 | CHP-126 | DMS-153 | THP-1 | SNU-16 | NCI-H748 | L-540 | LU-165
2.83 µM: SCLC-21H
3.11 µM: LP-1
3.49 µM: LC-1F

CC[C@H](CO)Nc1nc(NCc2ccccc2)c2ncn(C(C)C)c2n1 [SELICICLIB]
7.13 µM: MRK-nu-1
> 16 µM: SUP-T1 | CHP-126 | DMS-153 | BL-70 | THP-1 | SCLC-21H | LP-1 | SNU-16 | NCI-H524 | NCI-H748 | LC-1F | L-540 | MC-CAR | LU-165

CCN(CC)CCNC(=O)c1c(C)[nH]c(/C=C2\C(=O)Nc3ccc(F)cc32)c1C [SUNITINIB]
1.46 µM: SNU-16
> 8 µM: SUP-T1 | CHP-126 | DMS-153 | THP-1 | MRK-nu-1 | SCLC-21H | LP-1 | NCI-H524 | NCI-H748 | LC-1F | L-540 | MC-CAR | LU-165
1.12 µM: BL-70
